{"source": "ChEMBL document CHEMBL4507283", "about": "“Data for DCP probe BI-1935” (2021)", "key": {"[1]": {"biological_target": "Ephrin type-A receptor 2 (Homo sapiens) (UniProt P29317)", "settings": "Compound concentration 1000.0 nM"}, "[2]": {"biological_target": "Serine/threonine-protein kinase LATS1 (Homo sapiens) (UniProt O95835)", "sequence (O95835 whole entry)": "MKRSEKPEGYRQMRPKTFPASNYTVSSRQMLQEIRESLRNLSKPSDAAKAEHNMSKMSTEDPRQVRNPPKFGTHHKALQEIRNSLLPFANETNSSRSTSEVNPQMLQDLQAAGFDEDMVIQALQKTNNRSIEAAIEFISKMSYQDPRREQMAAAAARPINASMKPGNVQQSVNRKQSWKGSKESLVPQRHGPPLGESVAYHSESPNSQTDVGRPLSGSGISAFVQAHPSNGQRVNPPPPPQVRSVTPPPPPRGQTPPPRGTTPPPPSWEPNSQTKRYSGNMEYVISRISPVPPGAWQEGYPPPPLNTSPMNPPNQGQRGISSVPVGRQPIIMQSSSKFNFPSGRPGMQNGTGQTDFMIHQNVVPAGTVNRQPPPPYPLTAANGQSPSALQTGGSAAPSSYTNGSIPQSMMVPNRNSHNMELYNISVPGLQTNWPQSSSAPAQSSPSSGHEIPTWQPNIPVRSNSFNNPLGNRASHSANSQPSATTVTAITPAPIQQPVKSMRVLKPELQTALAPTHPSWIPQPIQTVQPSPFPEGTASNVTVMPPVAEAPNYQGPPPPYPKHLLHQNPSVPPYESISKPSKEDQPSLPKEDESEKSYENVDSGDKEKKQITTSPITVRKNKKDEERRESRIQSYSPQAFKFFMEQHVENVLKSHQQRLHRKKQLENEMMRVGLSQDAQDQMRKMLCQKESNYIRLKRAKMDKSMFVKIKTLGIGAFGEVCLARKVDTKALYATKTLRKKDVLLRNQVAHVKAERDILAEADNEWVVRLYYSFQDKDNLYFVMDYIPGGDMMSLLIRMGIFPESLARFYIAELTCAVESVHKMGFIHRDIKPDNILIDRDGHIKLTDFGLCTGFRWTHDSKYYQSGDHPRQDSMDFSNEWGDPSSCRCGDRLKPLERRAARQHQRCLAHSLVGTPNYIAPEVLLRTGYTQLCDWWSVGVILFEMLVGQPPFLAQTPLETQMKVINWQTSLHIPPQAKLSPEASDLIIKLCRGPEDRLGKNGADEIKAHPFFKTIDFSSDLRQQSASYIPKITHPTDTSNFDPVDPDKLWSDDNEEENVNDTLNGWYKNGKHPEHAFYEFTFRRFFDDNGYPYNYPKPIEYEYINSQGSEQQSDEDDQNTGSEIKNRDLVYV", "settings": "Compound concentration 1000.0 nM"}, "[3]": {"biological_target": "T1, Bifunctional epoxide hydrolase 2 (Homo sapiens, UniProt P34913)", "T1 sequence (P34913 whole entry)": "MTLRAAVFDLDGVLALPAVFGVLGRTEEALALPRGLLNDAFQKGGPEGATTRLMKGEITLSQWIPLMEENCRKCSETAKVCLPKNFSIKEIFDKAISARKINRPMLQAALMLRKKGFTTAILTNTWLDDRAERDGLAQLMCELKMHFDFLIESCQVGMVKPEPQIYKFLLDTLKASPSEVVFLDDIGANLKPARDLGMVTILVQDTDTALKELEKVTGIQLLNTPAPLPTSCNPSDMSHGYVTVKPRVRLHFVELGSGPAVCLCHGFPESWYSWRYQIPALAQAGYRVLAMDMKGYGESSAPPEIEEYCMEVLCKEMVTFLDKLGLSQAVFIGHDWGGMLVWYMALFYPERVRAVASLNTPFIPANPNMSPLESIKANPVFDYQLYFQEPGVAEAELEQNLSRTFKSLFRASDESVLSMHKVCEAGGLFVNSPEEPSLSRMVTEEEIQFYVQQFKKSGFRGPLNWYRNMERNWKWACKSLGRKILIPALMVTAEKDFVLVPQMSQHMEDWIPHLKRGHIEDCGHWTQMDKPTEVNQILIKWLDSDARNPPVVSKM", "experiment": "Human soluble epoxide hydrolase inhibition"}, "[4]": {"biological_target": "Casein kinase II subunit alpha (Homo sapiens) (UniProt P68400)", "settings": "Compound concentration 1000.0 nM"}, "[5]": {"biological_target": "MAP/microtubule affinity-regulating kinase 3 (Homo sapiens) (UniProt P27448)", "settings": "Compound concentration 1000.0 nM"}, "[6]": {"biological_target": "Ribosomal protein S6 kinase alpha-3 (Homo sapiens) (UniProt P51812)", "settings": "Compound concentration 1000.0 nM"}, "[7]": {"biological_target": "Activin receptor type-2B (Homo sapiens) (UniProt Q13705)", "settings": "Compound concentration 1000.0 nM"}, "[8]": {"biological_target": "LIM domain kinase 1 (Homo sapiens) (UniProt P53667)", "settings": "Compound concentration 1000.0 nM"}, "[9]": {"biological_target": "Calcium/calmodulin-dependent protein kinase type IV (Homo sapiens) (UniProt Q16566)", "settings": "Compound concentration 1000.0 nM"}, "[10]": {"biological_target": "Casein kinase I isoform alpha (Homo sapiens) (UniProt P48729)", "settings": "Compound concentration 1000.0 nM"}, "[11]": {"biological_target": "Insulin receptor-related protein (Homo sapiens) (UniProt P14616)", "settings": "Compound concentration 1000.0 nM"}, "[12]": {"biological_target": "Alpha-1A adrenergic receptor (Homo sapiens) (UniProt P35348)", "settings": "Compound concentration 10.0 uM"}, "[13]": {"tested_on": "Epidermal growth factor receptor (Homo sapiens), P00533 [UNDEFINED MUTATION]", "settings": "Compound concentration 1000.0 nM"}, "[14]": {"biological_target": "Phosphorylase b kinase gamma catalytic chain, skeletal muscle/heart isoform (Homo sapiens) (UniProt Q16816)", "settings": "Compound concentration 1000.0 nM"}, "[15]": {"biological_target": "Ephrin type-A receptor 7 (Homo sapiens) (UniProt Q15375)", "settings": "Compound concentration 1000.0 nM"}, "[16]": {"biological_target": "Nitric oxide synthase 3 (Rattus norvegicus) (UniProt Q62600)", "sequence (Q62600 whole entry)": "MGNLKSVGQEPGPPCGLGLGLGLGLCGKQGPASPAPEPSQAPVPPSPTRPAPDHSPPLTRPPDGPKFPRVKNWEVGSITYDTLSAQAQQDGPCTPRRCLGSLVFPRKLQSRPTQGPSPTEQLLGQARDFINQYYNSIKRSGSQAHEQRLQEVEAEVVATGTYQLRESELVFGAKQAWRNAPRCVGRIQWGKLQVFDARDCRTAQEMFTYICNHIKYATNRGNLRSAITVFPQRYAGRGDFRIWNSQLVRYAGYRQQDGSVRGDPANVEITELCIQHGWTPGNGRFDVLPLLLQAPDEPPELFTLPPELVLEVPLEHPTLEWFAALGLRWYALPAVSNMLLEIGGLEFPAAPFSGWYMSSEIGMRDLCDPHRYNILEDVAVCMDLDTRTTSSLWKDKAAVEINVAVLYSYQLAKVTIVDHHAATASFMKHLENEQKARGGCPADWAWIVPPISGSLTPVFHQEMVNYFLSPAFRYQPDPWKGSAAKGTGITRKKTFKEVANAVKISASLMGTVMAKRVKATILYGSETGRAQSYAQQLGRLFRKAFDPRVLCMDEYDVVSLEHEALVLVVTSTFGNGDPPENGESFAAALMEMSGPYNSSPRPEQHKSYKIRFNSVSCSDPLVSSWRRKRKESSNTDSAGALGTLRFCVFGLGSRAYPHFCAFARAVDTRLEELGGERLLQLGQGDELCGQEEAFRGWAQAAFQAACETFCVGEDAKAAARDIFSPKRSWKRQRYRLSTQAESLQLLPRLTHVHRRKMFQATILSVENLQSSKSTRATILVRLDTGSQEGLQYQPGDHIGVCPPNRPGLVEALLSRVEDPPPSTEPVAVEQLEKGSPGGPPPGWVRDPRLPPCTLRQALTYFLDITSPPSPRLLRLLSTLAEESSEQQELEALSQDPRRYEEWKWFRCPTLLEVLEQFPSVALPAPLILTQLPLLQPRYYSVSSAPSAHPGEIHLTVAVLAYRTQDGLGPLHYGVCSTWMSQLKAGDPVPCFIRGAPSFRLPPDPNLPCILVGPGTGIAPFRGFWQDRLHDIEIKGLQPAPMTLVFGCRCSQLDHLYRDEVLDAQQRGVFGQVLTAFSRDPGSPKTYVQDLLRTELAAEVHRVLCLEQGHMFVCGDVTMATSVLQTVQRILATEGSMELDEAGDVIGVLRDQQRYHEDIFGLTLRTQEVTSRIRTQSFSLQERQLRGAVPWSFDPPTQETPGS", "experiment": "CNOS Eurofins-Panlabs selectivity data (BI)", "settings": "Compound concentration 10.0 uM"}, "[17]": {"biological_target": "Serine/threonine-protein kinase 24 (Homo sapiens) (UniProt Q9Y6E0)", "settings": "Compound concentration 1000.0 nM"}, "[18]": {"biological_target": "Death-associated protein kinase 1 (Homo sapiens) (UniProt P53355)", "settings": "Compound concentration 1000.0 nM"}, "[19]": {"tested_on": "Proto-oncogene tyrosine-protein kinase receptor Ret (Homo sapiens), P07949 [V804L]", "settings": "Compound concentration 1000.0 nM"}, "[20]": {"biological_target": "Mitogen-activated protein kinase 9 (Homo sapiens) (UniProt P45984)", "settings": "Compound concentration 1000.0 nM"}, "[21]": {"tested_on": "Mast/stem cell growth factor receptor Kit (Homo sapiens), P10721 [V559D,V654A]", "settings": "Compound concentration 1000.0 nM"}, "[22]": {"biological_target": "Muscarinic acetylcholine receptor M2 (Homo sapiens) (UniProt P08172)", "settings": "Compound concentration 10.0 uM"}, "[23]": {"biological_target": "Serine/threonine-protein kinase PAK 6 (Homo sapiens) (UniProt Q9NQU5)", "settings": "Compound concentration 1000.0 nM"}, "[24]": {"biological_target": "Receptor-interacting serine/threonine-protein kinase 4 (Homo sapiens) (UniProt P57078)", "settings": "Compound concentration 1000.0 nM"}, "[25]": {"biological_target": "RAC-gamma serine/threonine-protein kinase (Homo sapiens) (UniProt Q9Y243)", "sequence (Q9Y243 whole entry)": "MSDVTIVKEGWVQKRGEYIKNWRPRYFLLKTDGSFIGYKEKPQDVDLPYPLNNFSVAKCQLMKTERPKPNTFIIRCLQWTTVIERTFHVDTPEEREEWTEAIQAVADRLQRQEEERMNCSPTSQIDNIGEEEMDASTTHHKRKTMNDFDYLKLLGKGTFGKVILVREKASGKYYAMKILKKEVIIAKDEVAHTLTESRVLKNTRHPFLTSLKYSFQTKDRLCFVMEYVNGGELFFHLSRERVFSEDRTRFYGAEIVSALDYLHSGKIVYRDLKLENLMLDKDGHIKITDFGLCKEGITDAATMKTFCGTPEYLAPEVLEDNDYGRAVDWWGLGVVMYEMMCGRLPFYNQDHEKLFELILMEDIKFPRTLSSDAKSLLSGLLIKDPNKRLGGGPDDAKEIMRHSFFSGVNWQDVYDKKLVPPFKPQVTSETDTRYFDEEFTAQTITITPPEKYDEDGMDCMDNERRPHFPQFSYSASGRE", "settings": "Compound concentration 1000.0 nM"}, "[26]": {"tested_on": "Tyrosine-protein kinase ABL1 (Homo sapiens), P00519 [H396P]", "settings": "Compound concentration 1000.0 nM"}, "[27]": {"biological_target": "Serine/threonine-protein kinase PLK2 (Homo sapiens) (UniProt Q9NYY3)", "sequence (Q9NYY3 whole entry, looked up)": "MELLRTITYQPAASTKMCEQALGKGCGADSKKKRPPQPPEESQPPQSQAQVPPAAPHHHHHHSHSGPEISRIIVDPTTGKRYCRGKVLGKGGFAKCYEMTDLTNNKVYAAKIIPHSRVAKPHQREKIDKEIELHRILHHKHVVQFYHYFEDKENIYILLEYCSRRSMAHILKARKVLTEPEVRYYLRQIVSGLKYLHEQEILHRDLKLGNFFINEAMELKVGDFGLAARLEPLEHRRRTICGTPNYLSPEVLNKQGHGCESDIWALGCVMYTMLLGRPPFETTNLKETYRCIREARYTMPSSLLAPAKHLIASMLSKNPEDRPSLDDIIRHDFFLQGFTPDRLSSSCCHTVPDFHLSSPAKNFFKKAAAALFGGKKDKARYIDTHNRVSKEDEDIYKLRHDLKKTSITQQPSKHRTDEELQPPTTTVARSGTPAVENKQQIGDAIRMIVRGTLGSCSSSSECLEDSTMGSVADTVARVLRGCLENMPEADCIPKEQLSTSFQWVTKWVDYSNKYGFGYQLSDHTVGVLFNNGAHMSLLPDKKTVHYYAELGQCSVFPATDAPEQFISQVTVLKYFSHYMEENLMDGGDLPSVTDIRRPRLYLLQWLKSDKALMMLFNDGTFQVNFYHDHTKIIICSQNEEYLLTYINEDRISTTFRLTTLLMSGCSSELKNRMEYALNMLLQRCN", "settings": "Compound concentration 1000.0 nM"}, "[28]": {"biological_target": "Mitogen-activated protein kinase kinase kinase kinase 1 (Homo sapiens) (UniProt Q92918)", "sequence (Q92918 whole entry, looked up)": "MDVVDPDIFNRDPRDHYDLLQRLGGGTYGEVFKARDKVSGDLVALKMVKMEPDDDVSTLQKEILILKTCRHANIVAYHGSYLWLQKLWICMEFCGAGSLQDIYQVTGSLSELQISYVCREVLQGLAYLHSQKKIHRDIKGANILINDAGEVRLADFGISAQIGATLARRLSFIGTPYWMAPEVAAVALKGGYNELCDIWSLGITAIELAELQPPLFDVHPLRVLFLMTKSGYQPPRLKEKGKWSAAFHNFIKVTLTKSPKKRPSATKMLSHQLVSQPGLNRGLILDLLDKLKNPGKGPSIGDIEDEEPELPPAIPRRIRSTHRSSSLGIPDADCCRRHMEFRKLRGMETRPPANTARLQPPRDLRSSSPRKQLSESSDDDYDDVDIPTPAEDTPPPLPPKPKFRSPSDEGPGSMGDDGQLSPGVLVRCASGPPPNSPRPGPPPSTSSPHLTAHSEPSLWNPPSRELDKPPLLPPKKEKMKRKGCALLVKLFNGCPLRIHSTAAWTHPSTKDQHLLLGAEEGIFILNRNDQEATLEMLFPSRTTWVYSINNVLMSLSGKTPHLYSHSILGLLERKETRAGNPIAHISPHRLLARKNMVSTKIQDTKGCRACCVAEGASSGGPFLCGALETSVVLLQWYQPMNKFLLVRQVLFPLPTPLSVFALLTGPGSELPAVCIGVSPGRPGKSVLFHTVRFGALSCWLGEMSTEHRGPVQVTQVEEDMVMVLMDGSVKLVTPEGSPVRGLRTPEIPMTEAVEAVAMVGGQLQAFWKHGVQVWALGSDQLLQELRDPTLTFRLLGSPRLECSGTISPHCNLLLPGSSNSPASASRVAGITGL", "settings": "Compound concentration 1000.0 nM"}, "[29]": {"tested_on": "Fibroblast growth factor receptor 3 (Homo sapiens), P22607 [G697C]", "settings": "Compound concentration 1000.0 nM"}, "[30]": {"tested_on": "Phosphatidylinositol 4,5-bisphosphate 3-kinase catalytic subunit alpha isoform (Homo sapiens), P42336 [C420R]", "settings": "Compound concentration 1000.0 nM"}, "[31]": {"biological_target": "Serine/threonine-protein kinase Nek11 (Homo sapiens) (UniProt Q8NG66)", "settings": "Compound concentration 1000.0 nM"}, "[32]": {"tested_on": "Phosphatidylinositol 4,5-bisphosphate 3-kinase catalytic subunit alpha isoform (Homo sapiens), P42336 [H1047Y]", "settings": "Compound concentration 1000.0 nM"}, "[33]": {"biological_target": "Tyrosine-protein kinase Srms (Homo sapiens) (UniProt Q9H3Y6)", "settings": "Compound concentration 1000.0 nM"}, "[34]": {"biological_target": "Cytoplasmic tyrosine-protein kinase BMX (Homo sapiens) (UniProt P51813)", "settings": "Compound concentration 1000.0 nM"}, "[35]": {"biological_target": "Serine/threonine-protein kinase Chk1 (Homo sapiens) (UniProt O14757)", "sequence (O14757 whole entry)": "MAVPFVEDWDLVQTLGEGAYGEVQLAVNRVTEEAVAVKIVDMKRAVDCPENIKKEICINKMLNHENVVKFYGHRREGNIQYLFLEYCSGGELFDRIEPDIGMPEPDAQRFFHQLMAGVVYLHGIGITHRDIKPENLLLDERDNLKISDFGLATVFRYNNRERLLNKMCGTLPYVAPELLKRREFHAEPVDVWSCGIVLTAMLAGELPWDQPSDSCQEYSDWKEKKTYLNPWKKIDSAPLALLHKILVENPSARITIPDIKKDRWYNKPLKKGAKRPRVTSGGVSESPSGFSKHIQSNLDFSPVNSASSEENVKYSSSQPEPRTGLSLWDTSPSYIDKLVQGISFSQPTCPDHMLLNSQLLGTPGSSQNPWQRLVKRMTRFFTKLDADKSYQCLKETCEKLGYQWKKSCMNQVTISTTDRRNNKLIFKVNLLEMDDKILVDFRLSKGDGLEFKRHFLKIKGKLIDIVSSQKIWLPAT", "settings": "Compound concentration 1000.0 nM"}, "[36]": {"biological_target": "Ankyrin repeat and protein kinase domain-containing protein 1 (Homo sapiens) (UniProt Q8NFD2)", "settings": "Compound concentration 1000.0 nM"}, "[37]": {"biological_target": "Serine/threonine-protein kinase PAK 5 (Homo sapiens) (UniProt Q9P286)", "settings": "Compound concentration 1000.0 nM"}}, "note": "Active and inactive are the calls of the source. The calls are words filed in the database; no cut-off is given here."}
{"compound": "CCOCCn1cc(C(=O)Nc2ccc(-n3nc(-c4cccnc4)cc3C(F)(F)F)cn2)ccc1=O", "note": "[BI 1935]", "values": [{"measurement": "residual activity", "setting": "[1]", "value": 93, "unit": "%"}, {"measurement": "residual activity", "setting": "[2]", "value": 69, "unit": "%"}, {"measurement": "IC50", "setting": "[3]", "value": "7 nM (active)"}, {"measurement": "residual activity", "setting": "[4]", "value": 70, "unit": "%"}, {"measurement": "residual activity", "setting": "[5]", "value": 100, "unit": "%"}, {"measurement": "residual activity", "setting": "[6]", "value": 84, "unit": "%"}, {"measurement": "residual activity", "setting": "[7]", "value": 100, "unit": "%"}, {"measurement": "residual activity", "setting": "[8]", "value": 84, "unit": "%"}, {"measurement": "residual activity", "setting": "[9]", "value": 100, "unit": "%"}, {"measurement": "residual activity", "setting": "[10]", "value": 74, "unit": "%"}, {"measurement": "residual activity", "setting": "[11]", "value": 100, "unit": "%"}, {"measurement": "inhibition", "setting": "[12]", "value": 29.3, "unit": "%"}, {"measurement": "residual activity", "setting": "[13]", "value": 98, "unit": "%"}, {"measurement": "residual activity", "setting": "[14]", "value": 100, "unit": "%"}, {"measurement": "residual activity", "setting": "[15]", "value": 98, "unit": "%"}, {"measurement": "residual activity", "setting": "[16]", "value": 112, "unit": "%"}, {"measurement": "residual activity", "setting": "[17]", "value": 100, "unit": "%"}, {"measurement": "residual activity", "setting": "[18]", "value": 100, "unit": "%"}, {"measurement": "residual activity", "setting": "[19]", "value": 97, "unit": "%"}, {"measurement": "residual activity", "setting": "[20]", "value": 97, "unit": "%"}, {"measurement": "residual activity", "setting": "[21]", "value": 100, "unit": "%"}, {"measurement": "inhibition", "setting": "[22]", "value": -3, "unit": "%"}, {"measurement": "residual activity", "setting": "[23]", "value": 100, "unit": "%"}, {"measurement": "residual activity", "setting": "[24]", "value": 81, "unit": "%"}, {"measurement": "residual activity", "setting": "[25]", "value": 100, "unit": "%"}, {"measurement": "residual activity", "setting": "[26]", "value": 94, "unit": "%"}, {"measurement": "residual activity", "setting": "[27]", "value": 88, "unit": "%"}, {"measurement": "residual activity", "setting": "[28]", "value": 81, "unit": "%"}, {"measurement": "residual activity", "setting": "[29]", "value": 100, "unit": "%"}, {"measurement": "residual activity", "setting": "[30]", "value": 93, "unit": "%"}, {"measurement": "residual activity", "setting": "[31]", "value": 96, "unit": "%"}, {"measurement": "residual activity", "setting": "[32]", "value": 100, "unit": "%"}, {"measurement": "residual activity", "setting": "[33]", "value": 79, "unit": "%"}, {"measurement": "residual activity", "setting": "[34]", "value": 84, "unit": "%"}, {"measurement": "residual activity", "setting": "[35]", "value": 76, "unit": "%"}, {"measurement": "residual activity", "setting": "[36]", "value": 57, "unit": "%"}, {"measurement": "residual activity", "setting": "[37]", "value": 98, "unit": "%"}]}
